# The source made the active and inactive calls. The rule behind the calls is not given here.
# Target: Neuropeptides B/W receptor type 1 (Homo sapiens) (UniProt P48145)
# Assay: human NPBW1 receptor blockade – cell-based, fluorescence, percent inhibition, late-stage follow-up (AID 588562)
# Details: GPR7-expressing cells, fluorescence antagonist assay; at 20 µM; active compounds read high
# Neuropeptides B/W receptor type 1 (Homo sapiens), sequence (P48145 whole entry, looked up): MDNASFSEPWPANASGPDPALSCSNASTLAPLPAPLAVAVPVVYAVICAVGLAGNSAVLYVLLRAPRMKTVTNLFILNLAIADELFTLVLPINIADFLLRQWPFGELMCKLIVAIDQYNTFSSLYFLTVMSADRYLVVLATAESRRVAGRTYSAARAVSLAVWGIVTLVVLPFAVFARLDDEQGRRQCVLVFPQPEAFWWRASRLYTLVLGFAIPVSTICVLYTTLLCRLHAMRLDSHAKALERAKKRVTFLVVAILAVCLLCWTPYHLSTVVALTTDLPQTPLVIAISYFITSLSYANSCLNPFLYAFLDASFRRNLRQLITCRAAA
row,Structure (SMILES),inhibition
1,COc1ccc(Oc2c(C(=O)O)cnn(-c3ccc(C(C)C)cc3)c2=O)cc1,-16% (inactive)
2,COc1ccc(Oc2c(N)cnn(-c3ccc(C(F)(F)F)cc3)c2=O)cc1,31% (inactive)
3,COc1ccc(Oc2c(NC(C)=O)cnn(-c3ccc(C(C)C)cc3)c2=O)cc1,15% (inactive)
4,COc1ccc(Oc2c(N)cnn(-c3ccc(C(C)C)cc3)c2=O)cc1,-10% (inactive)
5,CC(C)c1ccc(-n2ncc(Cl)c(Oc3ccc(C(F)(F)F)cc3)c2=O)cc1,55% (inactive)
6,CC(C)c1ccc(-n2ncc(NCc3ccccc3)c(Cl)c2=O)cc1,-18% (inactive)
7,COc1ccc(Oc2ccnn(-c3ccc(C)cc3)c2=O)cc1,24% (inactive)
8,CCOc1ccc(Oc2c(Cl)cnn(-c3ccc(C(C)C)cc3)c2=O)cc1,46% (inactive)
9,CC(C)c1ccc(-n2ncc(Cl)c(Oc3cc(C(C)(C)C)cc(C(C)(C)C)c3)c2=O)cc1,-3% (inactive)
10,COc1ccc(Oc2c(N3CCN(C)CC3)cnn(-c3ccc(C(C)C)cc3)c2=O)cc1,-25% (inactive)
11,COc1ccc(Oc2c(-n3nnc(C)c3C)cnn(-c3ccc(C(C)C)cc3)c2=O)cc1,15% (inactive)
12,COc1ccc(Oc2c(N3CCN(C(=O)OC(C)(C)C)CC3)cnn(-c3ccc(C(C)C)cc3)c2=O)cc1,15% (inactive)
13,COc1ccc(COc2c(Cl)cnn(-c3ccc(C(C)C)cc3)c2=O)cc1,27% (inactive)
14,COc1ccc(Oc2c(C(=O)N(C)C)cnn(-c3ccc(C(C)C)cc3)c2=O)cc1,7% (inactive)
15,COc1ccc(Oc2c(N3CCOCC3)cnn(-c3ccc(C(C)C)cc3)c2=O)cc1,37% (inactive)

# Source: PubChem BioAssay AID588562 (The Scripps Research Institute Molecular Screening Center, 2011)
